Experimental data from the supplement of paper PMC13380429.
Counter-ions that a name gives are not always drawn.

What was measured:
Conditions in all cases: 72 h
[1] = tested on: U2OS; experiment: relative viability EC50 (midpoint between 100% and the lowest measured viability); higher = less toxic
[2] = tested on: Vero E6; experiment: as above
[3] = tested on: Caco-2; experiment: as above
[4] = tested on: HepG2; experiment: as above
[5] = tested on: Calu-3; experiment: as above
[6] = tested on: U2OS; experiment: cell viability relative to DMSO; higher = less toxic
[7] = tested on: Vero E6; experiment: as above
[8] = tested on: Caco-2; experiment: as above
[9] = tested on: HepG2; experiment: as above
[10] = tested on: Calu-3; experiment: as above
[11] = tested on: U2OS; experiment: drug sensitivity score (DSS) for viability; higher = more toxic; extreme values may be limits of the assay
[12] = tested on: Vero E6; experiment: as above
[13] = tested on: Caco-2; experiment: as above
[14] = tested on: HepG2; experiment: as above
[15] = tested on: Calu-3; experiment: as above

Structure (SMILES) | relative viability EC50 [1] [µM] | relative viability EC50 [2] [µM] | relative viability EC50 [3] [µM] | relative viability EC50 [4] [µM] | relative viability EC50 [5] [µM] | cell viability ([6]; 1 nM) [%] | cell viability ([6]; 10 nM) [%] | cell viability ([6]; 100 nM) [%] | cell viability ([6]; 1000 nM) [%] | cell viability ([6]; 10000 nM) [%] | cell viability ([7]; 1 nM) [%] | cell viability ([7]; 10 nM) [%] | cell viability ([7]; 100 nM) [%] | cell viability ([7]; 1000 nM) [%] | cell viability ([7]; 10000 nM) [%] | cell viability ([8]; 1 nM) [%] | cell viability ([8]; 10 nM) [%] | cell viability ([8]; 100 nM) [%] | cell viability ([8]; 1000 nM) [%] | cell viability ([8]; 10000 nM) [%] | cell viability ([9]; 1 nM) [%] | cell viability ([9]; 10 nM) [%] | cell viability ([9]; 100 nM) [%] | cell viability ([9]; 1000 nM) [%] | cell viability ([9]; 10000 nM) [%] | cell viability ([10]; 1 nM) [%] | cell viability ([10]; 10 nM) [%] | cell viability ([10]; 100 nM) [%] | cell viability ([10]; 1000 nM) [%] | cell viability ([10]; 10000 nM) [%] | drug sensitivity score [11] | drug sensitivity score [12] | drug sensitivity score [13] | drug sensitivity score [14] | drug sensitivity score [15]
CC(C)OC(=O)N1CCC(Oc2ncnc3c2cnn3-c2ccc(S(C)(=O)=O)cc2F)CC1 [APD668] | > 10 | > 10 | > 10 | > 10 | > 10 | 99.4 | 101 | 97.4 | 106 | 97.5 | 90.5 | 95.2 | 100 | 95.7 | 105 | 106 | 98.4 | 93.6 | 96.1 | 89.1 | 103 | 102 | 96.2 | 98.6 | 77.1 | 106 | 107 | 102 | 108 | 92.7 | 0 | 0 | 0 | 1 | 0
CC(C)C(=O)Oc1ccc(CO)cc1[C@H](CCN(C(C)C)C(C)C)c1ccccc1 [fesoterodine] | > 10 | > 10 | > 10 | > 10 | > 10 | 105 | 95.8 | 98.2 | 99.8 | 100 | 100 | 99.9 | 99.2 | 104 | 92.6 | 91.6 | 99.1 | 103 | 98.8 | 96.5 | 101 | 104 | 83.7 | 90.9 | 90.7 | 102 | 97.3 | 90.2 | 100 | 104 | 0 | 0 | 0 | 3 | 0
O=C(O[C@H]1[C@H](OC(=O)c2cccnc2)[C@@H](OC(=O)c2cccnc2)[C@H](OC(=O)c2cccnc2)[C@@H](OC(=O)c2cccnc2)[C@H]1OC(=O)c1cccnc1)c1cccnc1 [inositol-hexanicotinate] | > 10 | > 10 | > 10 | > 10 | > 10 | 92.4 | 90.5 | 99 | 98.5 | 99.4 | 105 | 102 | 90.9 | 93.7 | 113 | 92.2 | 88.9 | 103 | 89.3 | 91.2 | 90.9 | 112 | 89.1 | 96.5 | 94.6 | 102 | 93.3 | 100 | 103 | 110 | 0 | 0 | 0 | 0 | 0
C[C@]12CCC(=O)C=C1C=C[C@@H]1[C@@H]2CC[C@@]2(C)[C@H]1CC[C@@]2(O)CCC(=O)O [potassium-canrenoate] | > 10 | > 10 | > 10 | > 10 | > 10 | 97.1 | 104 | 98.9 | 100 | 98.9 | 102 | 91.6 | 102 | 88 | 100 | 93.8 | 112 | 77.3 | 88.9 | 105 | 106 | 89.4 | 85.4 | 87.9 | 99 | 102 | 94.7 | 107 | 101 | 104 | 0 | 0 | 0 | 0 | 0
CN1C[C@@H](NS(=O)(=O)N(C)C)C[C@@H]2c3cccc4c3c(cn4C)C[C@H]21 [mesulergine] | > 10 | > 10 | > 10 | > 10 | > 10 | 103 | 100 | 101 | 101 | 99.9 | 97.5 | 104 | 94.1 | 97.9 | 94.9 | 108 | 102 | 105 | 98.9 | 108 | 101 | 99.3 | 106 | 108 | 100 | 111 | 106 | 107 | 96.1 | 102 | 0 | 0 | 0 | 0 | 0
CO/N=C(\C(=O)N[C@@H]1C(=O)N2C(C(=O)O)=C(CSC(=O)c3ccco3)CS[C@H]12)c1csc(N)n1 [CEFTIOFUR HYDROCHLORIDE] | > 10 | > 10 | > 10 | > 10 | > 10 | 104 | 95.6 | 100 | 97.4 | 104 | 92.5 | 107 | 93.9 | 96.9 | 106 | 99.9 | 97 | 90.6 | 95.4 | 99.3 | 106 | 98.5 | 92.4 | 103 | 103 | 96.3 | 110 | 99.4 | 104 | 102 | 0 | 0 | 0 | 0 | 0
CC(C)OC(=O)C1=CN(C(=O)c2ccc(F)c(F)c2)CC(C)(C)c2c1[nH]c1ccccc21 | > 10 | > 10 | > 10 | > 10 | > 10 | 98.3 | 99.6 | 95.9 | 100 | 96.3 | 101 | 97.6 | 95.4 | 98.7 | 98.9 | 84.5 | 99.7 | 86.1 | 95.2 | 89.3 | 95.3 | 102 | 97.3 | 92.1 | 112 | 104 | 91.3 | 103 | 96.5 | 97.8 | 0 | 0 | 0 | 0 | 0
Cc1ccc2c(Cl)cc(Cl)c(O)c2n1 [chlorquinaldol] | > 10 | > 10 | > 10 | > 10 | > 10 | 96.8 | 102 | 97.8 | 102 | 100 | 93.3 | 88.9 | 99.2 | 86.6 | 103 | 107 | 91.3 | 96.7 | 91.4 | 103 | 89.3 | 95.5 | 99.1 | 84.4 | 108 | 92.4 | 99.9 | 84.2 | 86.9 | 108 | 0 | 0 | 0 | 0 | 0
CCCCCCCCCCCCCCCC[n+]1ccccc1 [cetylpyridinium] | 1.68 | 2.3 | 1.17 | 0.929 | 1.46 | 103 | 102 | 104 | 80.9 | 10.1 | 96.2 | 97.5 | 98.1 | 91.6 | 19.2 | 103 | 99 | 101 | 66.4 | 16.5 | 106 | 95.4 | 89.2 | 58.2 | 14.6 | 104 | 99.9 | 105 | 84.3 | 44.1 | 8 | 5.9 | 9.1 | 9.8 | 5.4
CC1(C)O[C@@H]2C[C@H]3[C@@H]4CCC5=CC(=O)CC[C@]5(C)[C@@]4(F)[C@@H](O)C[C@]3(C)[C@]2(C(=O)CCl)O1 [halcinonide] | > 10 | > 10 | > 10 | > 10 | > 10 | 102 | 103 | 96.7 | 89.6 | 97.6 | 101 | 103 | 97.4 | 98.4 | 98.1 | 106 | 99.4 | 106 | 99 | 104 | 104 | 98 | 97.7 | 95.8 | 96 | 106 | 98.3 | 96.6 | 100 | 102 | 0.1 | 0 | 0 | 0 | 0
O=C(O)CNC(=O)c1nc(Cl)c2ccccc2c1O [FG-2216] | > 10 | > 10 | > 10 | > 10 | > 10 | 107 | 98 | 101 | 91.5 | 93.2 | 100 | 99.4 | 104 | 102 | 99.5 | 98.2 | 102 | 99.3 | 94.1 | 93.5 | 101 | 98 | 96.4 | 99.1 | 95.3 | 106 | 98.5 | 96.6 | 103 | 103 | 0 | 0 | 0 | 0 | 0
CC[C@H](NC(=O)c1c(C)c(-c2ccccc2)nc2ccccc12)c1ccccc1 | > 10 | > 10 | > 10 | > 10 | > 10 | 104 | 101 | 101 | 98.7 | 102 | 103 | 109 | 102 | 103 | 96.7 | 106 | 98.4 | 101 | 103 | 91.2 | 99 | 108 | 95.4 | 102 | 93.4 | 95.8 | 95.2 | 100 | 96.7 | 87.7 | 0 | 0 | 0 | 0 | 0.2
COc1cccc(NC(=O)/C=C/c2ccc(Cl)cc2)c1 | > 10 | > 10 | > 10 | > 10 | > 10 | 93 | 100 | 96.3 | 97.9 | 92.8 | 102 | 96.4 | 97.2 | 95 | 107 | 98.2 | 100 | 98.5 | 88.3 | 81 | 102 | 103 | 99.8 | 98.3 | 105 | 104 | 99.4 | 93.3 | 108 | 84.2 | 0 | 0 | 1.4 | 0 | 0.1
CN(C)CCCOc1nn(Cc2ccccc2)c2ccccc12 [benzydamine] | > 10 | > 10 | > 10 | > 10 | > 10 | 101 | 96.5 | 100 | 95.6 | 91.2 | 98.7 | 105 | 98.3 | 96.9 | 85.5 | 86.2 | 94.3 | 73.1 | 80.3 | 87.1 | 97.7 | 102 | 95.1 | 91.4 | 89.8 | 98.8 | 91.7 | 95.6 | 101 | 90.5 | 0 | 0.5 | 0 | 0 | 0
